Results taken from paper PMC11111955, “Safety and efficacy evaluation of halicin as an effective drug for inhibiting intestinal infections” (Frontiers in Pharmacology, 2024).
Values after ≈ are worked out from the molar mass of the structure shown. Read-outs that look alike come from different tables or passages of the source.

Legend:
Salmonella (CVCC 3377) = experiment: Growth kinetics curve; conditions: 1/2 × to 4 × MIC
S. aureus (ATCC 29213) = experiment: Minimum inhibitory concentration (MIC); type: cell-based, Staphylococcus aureus
Procedure: (§1) The test strains were inoculated on the corresponding solid medium and incubated overnight at 37°C. A single colony was picked from the medium and inoculated into Luria Broth (LB), and then incubated overnight at 37°C with shaking at 220 rpm. The bacterial suspension was diluted to 0.5 McFarland turbidity with Mueller Hinton broth (MHB), and then dilute 100 times for later use. Halicin was added to the 96-well plate, and diluted it to concentrations of 128, 64, 32, 16, 8, 4, 2, 1, 0.5, 0.25, 0.125, and 0 μg/mL by gradient. The 96-well plate was incubated at 37°C for 16 h, followed by observing and recording the results. The MIC was determined as the concentration at which there was no visible colony growth was observed.

[1] = test system: other bacteria (except Bacillus subtilis and Pseudomonas aeruginosa); experiment: MIC, panel of Table 1 as summarised in the text; type: cell-based; conditions: bacteria of Table 1 except Bacillus subtilis and Pseudomonas aeruginosa
[2] = test system: clinical isolates of C. perfringens strains; type: cell-based, Clostridium perfringens
[3] = test system: S. pneumoniae (ATCC 49619); experiment: Minimum inhibitory concentration (MIC); type: cell-based, Streptococcus pneumoniae
Procedure: as §1

WP2uvApKM101 = experiment: Ames test; type: cell-based, Escherichia coli
Procedure: The experiments were performed in triplicate.

B. subtilis (ATCC 66333) = experiment: Minimum inhibitory concentration (MIC); type: cell-based, Bacillus subtilis
Procedure: as §1

Proteus (CMCC (B) 49027) [4] = experiment: Growth kinetics curve; type: cell-based; conditions: 1/2 × to 4 × MIC
[5] = test system: Klebsiella pneumoniae (ATCC 4352); experiment: Growth kinetics curve; type: cell-based; conditions: 1/2 × to 4 × MIC
[6] = test system: bone marrow polychromatic erythrocytes; experiment: Micronucleus experiment of mammalian bone marrow cells
E. coli (ATCC 25922) = experiment: Multipassage resistance study (continuous induction); conditions: after multipassage induction
H. parasuis (ATCC 19417) = experiment: Minimum inhibitory concentration (MIC); type: cell-based
Procedure: as §1

Proteus (CMCC (B) 49027) [7] = experiment: Minimum inhibitory concentration (MIC); type: cell-based
Procedure: as §1

S. flexneri (CMCC 51572) = experiment: Minimum inhibitory concentration (MIC); type: cell-based
Procedure: as §1

[8] = test system: Streptococcus suis (ATCC 43765); experiment: Minimum inhibitory concentration (MIC); type: cell-based
Procedure: as §1

Mouse spermatozoa = conditions: for Abnormal ratio (%) / Number of sperm abnormality: male ICR mice, oral; for Number of sperm abnormality: of 5 × 1,000 sperms observed
[9] = test system: clinical isolates of E. coli strains; experiment: MIC against clinical isolates; type: cell-based, Escherichia coli
MRSA (ATCC 43300) = experiment: Minimum inhibitory concentration (MIC); type: cell-based, Staphylococcus aureus
[10] = test system: A. baumannii (ATCC 19606); experiment: Minimum inhibitory concentration (MIC); type: cell-based, Acinetobacter baumannii
Procedure: as §1

[11] = Female mice, High-does (1009.1) mg/kg
[12] = Female mice, Low-does (252.3) mg/kg
[13] = Female mice, Medium-does (504.6) mg/kg
[14] = Male mice, High-does (1009.1) mg/kg
[15] = Male mice, Low-does (252.3) mg/kg
[16] = Male mice, Medium-does (504.6) mg/kg

Nc1nnc(Sc2ncc([N+](=O)[O-])s2)s1 [halicin]
growth in growth kinetics curve assay (Salmonella (CVCC 3377)): completely inhibited | MIC (S. aureus (ATCC 29213)): 8 µg/mL (≈ 30.6 µM) | MIC against other bacteria [1]: less than 8 μg/mL | MIC ([2]; clinical isolate S049, Clostridium perfringens Cp001): 4 µg/mL (≈ 15.3 µM) | MIC ([2]; clinical isolate S050, Clostridium perfringens Cp002): 4 µg/mL (≈ 15.3 µM) | MIC ([2]; clinical isolate S051, Clostridium perfringens Cp003): 4 µg/mL (≈ 15.3 µM) | MIC ([2]; clinical isolate S052, Clostridium perfringens Cp004): 8 µg/mL (≈ 30.6 µM) | MIC ([2]; clinical isolate S053, Clostridium perfringens Cp005): 8 µg/mL (≈ 30.6 µM) | MIC ([2]; clinical isolate S054, Clostridium perfringens Cp006): 8 µg/mL (≈ 30.6 µM) | MIC ([2]; clinical isolate S055, Clostridium perfringens Cp007): 16 µg/mL (≈ 61.2 µM) | MIC ([2]; clinical isolate S056, Clostridium perfringens Cp008): 0.25 µg/mL (≈ 0.957 µM) | MIC ([2]; clinical isolate S057, Clostridium perfringens Cp009): 0.25 µg/mL (≈ 0.957 µM) | MIC ([2]; clinical isolate S058, Clostridium perfringens Cp010): 0.25 µg/mL (≈ 0.957 µM) | MIC [3]: 0.5 µg/mL (≈ 1.91 µM) | Ames test bacterial counts (WP2uvApKM101; WP2uvApKM101, +S9, 5.6 μg/plate): 183 ± 15.6 | Ames test bacterial counts (WP2uvApKM101; WP2uvApKM101, +S9, 11.2 μg/plate): 168 ± 19.8 | Ames test bacterial counts (WP2uvApKM101; WP2uvApKM101, +S9, 22.5 μg/plate): 12 ± 5.7 | Ames test bacterial counts (WP2uvApKM101; WP2uvApKM101, +S9, 45 μg/plate): 0 ± 0 | Ames test bacterial counts (WP2uvApKM101; WP2uvApKM101, -S9, 5.6 μg/plate): 169 ± 15.6 | Ames test bacterial counts (WP2uvApKM101; WP2uvApKM101, -S9, 11.2 μg/plate): 135 ± 22.6 | Ames test bacterial counts (WP2uvApKM101; WP2uvApKM101, -S9, 22.5 μg/plate): 75 ± 8.5 | Ames test bacterial counts (WP2uvApKM101; WP2uvApKM101, -S9, 45 μg/plate): 0 ± 0 | MIC (B. subtilis (ATCC 66333)): 128 µg/mL (≈ 490 µM) | growth in growth kinetics curve assay (Proteus (CMCC (B) 49027) [4]): completely inhibited | growth in growth kinetics curve assay [5]: completely inhibited | PCE micronucleus (‰) [6, 11]: 2.2 ± 0.8 ‰ | PCE/RBC [6, 11]: 0.72 ± 0.08 | PCE micronucleus (‰) [6, 12]: 1.2 ± 0.4 ‰ | PCE/RBC [6, 12]: 1.09 ± 0.06 | PCE micronucleus (‰) [6, 13]: 0.8 ± 0.4 ‰ | PCE/RBC [6, 13]: 1.06 ± 0.07 | PCE micronucleus (‰) [6, 14]: 0.8 ± 0.8 ‰ | PCE/RBC [6, 14]: 0.76 ± 0.03 | PCE micronucleus (‰) [6, 15]: 0.6 ± 0.5 ‰ | PCE/RBC [6, 15]: 1.07 ± 0.09 | PCE micronucleus (‰) [6, 16]: 1 ± 0.7 ‰ | PCE/RBC [6, 16]: 1.08 ± 0.11 | micronucleus ratio compared with the negative control group ([6]; high-dose (1009.1 mg/kg), p < 0.01): significant difference | micronucleus ratio compared with the negative control group ([6]; medium (504.6 mg/kg) and low-dose (252.3 mg/kg), p > 0.05): no significant difference | MIC of ECR (E. coli ATCC 25922 resistant strains) (E. coli (ATCC 25922)): 32 µg/mL | MIC (H. parasuis (ATCC 19417)): 8 µg/mL (≈ 30.6 µM) | MIC (Proteus (CMCC (B) 49027) [7]): 8 µg/mL (≈ 30.6 µM) | MIC (S. flexneri (CMCC 51572)): 8 µg/mL (≈ 30.6 µM) | MIC [8]: 4 µg/mL (≈ 15.3 µM) | proportions of abnormal sperm compared with the negative control group (Mouse spermatozoa; 1009.1, 504.6 and 252.3 mg/kg, p > 0.05): not significantly different | Abnormal sperms counted ratio (%): Amorphous (Mouse spermatozoa; High-dose (1009.1) mg/kg): 23.6 ± 12.44% | Abnormal sperms counted ratio (%): Banana shape (Mouse spermatozoa; High-dose (1009.1) mg/kg): 42.52 ± 12.57% | Abnormal sperms counted ratio (%): Kinks tail (Mouse spermatozoa; High-dose (1009.1) mg/kg): 3.05 ± 2.79% | Abnormal sperms counted ratio (%): Large round head (Mouse spermatozoa; High-dose (1009.1) mg/kg): 9.07 ± 4.02% | Abnormal sperms counted ratio (%): No hook (Mouse spermatozoa; High-dose (1009.1) mg/kg): 15.6 ± 5.5% | Abnormal sperms counted ratio (%): Two head (Mouse spermatozoa; High-dose (1009.1) mg/kg): 3.05 ± 2.79% | Abnormal sperms counted ratio (%): Two tail (Mouse spermatozoa; High-dose (1009.1) mg/kg): 3.11 ± 2.84% | Abnormal sperms counted ratio (%): Amorphous (Mouse spermatozoa; Low-dose (252.3) mg/kg): 39.81 ± 3% | Abnormal sperms counted ratio (%): Banana shape (Mouse spermatozoa; Low-dose (252.3) mg/kg): 35.98 ± 3.94% | Abnormal sperms counted ratio (%): Kinks tail (Mouse spermatozoa; Low-dose (252.3) mg/kg): 1.18 ± 2.63% | Abnormal sperms counted ratio (%): Large round head (Mouse spermatozoa; Low-dose (252.3) mg/kg): 3.92 ± 3.58% | Abnormal sperms counted ratio (%): No hook (Mouse spermatozoa; Low-dose (252.3) mg/kg): 16.61 ± 3.11% | Abnormal sperms counted ratio (%): Two head (Mouse spermatozoa; Low-dose (252.3) mg/kg): 1.33 ± 2.98% | Abnormal sperms counted ratio (%): Two tail (Mouse spermatozoa; Low-dose (252.3) mg/kg): 1.18 ± 2.63% | Abnormal sperms counted ratio (%): Amorphous (Mouse spermatozoa; Medium-dose (504.6) mg/kg): 29.69 ± 2.67% | Abnormal sperms counted ratio (%): Banana shape (Mouse spermatozoa; Medium-dose (504.6) mg/kg): 35.81 ± 4.52% | Abnormal sperms counted ratio (%): Kinks tail (Mouse spermatozoa; Medium-dose (504.6) mg/kg): 2.44 ± 3.37% | Abnormal sperms counted ratio (%): Large round head (Mouse spermatozoa; Medium-dose (504.6) mg/kg): 11.96 ± 0.96% | Abnormal sperms counted ratio (%): No hook (Mouse spermatozoa; Medium-dose (504.6) mg/kg): 16.7 ± 2.71% | Abnormal sperms counted ratio (%): Two head (Mouse spermatozoa; Medium-dose (504.6) mg/kg): 2.22 ± 3.04% | Abnormal sperms counted ratio (%): Two tail (Mouse spermatozoa; Medium-dose (504.6) mg/kg): 1.18 ± 2.63% | Abnormal ratio (%) (Mouse spermatozoa; High-dose (1009.1) mg/kg): 2.12 ± 0.38% | Number of sperm abnormality (Mouse spermatozoa; High-dose (1009.1) mg/kg): 110 | Abnormal ratio (%) (Mouse spermatozoa; Low-dose (252.3) mg/kg): 1.56 ± 0.09% | Number of sperm abnormality (Mouse spermatozoa; Low-dose (252.3) mg/kg): 78 | Abnormal ratio (%) (Mouse spermatozoa; Medium-dose (504.6) mg/kg): 1.68 ± 0.13% | Number of sperm abnormality (Mouse spermatozoa; Medium-dose (504.6) mg/kg): 84 | MIC [9]: 8 µg/mL (≈ 30.6 µM) | MIC ([9]; clinical isolate S015, Escherichia coli 1505): 16 µg/mL (≈ 61.2 µM) | MIC ([9]; clinical isolate S016, Escherichia coli 2101): 16 µg/mL (≈ 61.2 µM) | MIC ([9]; clinical isolate S017, Escherichia coli 1104): 16 µg/mL (≈ 61.2 µM) | MIC ([9]; clinical isolate S018, Escherichia coli 1103): 16 µg/mL (≈ 61.2 µM) | MIC ([9]; clinical isolate S019, Escherichia coli 1102): 16 µg/mL (≈ 61.2 µM) | MIC ([9]; clinical isolate S020, Escherichia coli 1204): 16 µg/mL (≈ 61.2 µM) | MIC ([9]; clinical isolate S021, Escherichia coli 1508): 16 µg/mL (≈ 61.2 µM) | MIC ([9]; clinical isolate S022, Escherichia coli 1302): 16 µg/mL (≈ 61.2 µM) | MIC ([9]; clinical isolate S023, Escherichia coli 1301): 16 µg/mL (≈ 61.2 µM) | MIC ([9]; clinical isolate S024, Escherichia coli 1213): 16 µg/mL (≈ 61.2 µM) | MIC ([9]; clinical isolate S025, Escherichia coli 1111): 8 µg/mL (≈ 30.6 µM) | MIC ([9]; clinical isolate S026, Escherichia coli 1123): 8 µg/mL (≈ 30.6 µM) | MIC ([9]; clinical isolate S034, Escherichia coli 1115): 8 µg/mL (≈ 30.6 µM) | MIC ([9]; clinical isolate S035, Escherichia coli 1114): 8 µg/mL (≈ 30.6 µM) | MIC ([9]; clinical isolate S036, Escherichia coli 1113): 8 µg/mL (≈ 30.6 µM) | MIC ([9]; clinical isolate S037, Escherichia coli 1110): 8 µg/mL (≈ 30.6 µM) | MIC ([9]; clinical isolate S038, Escherichia coli 1108): 8 µg/mL (≈ 30.6 µM) | MIC ([9]; clinical isolate S039, Escherichia coli 1105): 8 µg/mL (≈ 30.6 µM) | MIC ([9]; clinical isolate S040, Escherichia coli 230202): 8 µg/mL (≈ 30.6 µM) | MIC ([9]; clinical isolate S041, Escherichia coli 230203): 8 µg/mL (≈ 30.6 µM) | MIC ([9]; clinical isolate S042, Escherichia coli 230210): 8 µg/mL (≈ 30.6 µM) | MIC ([9]; clinical isolate S043, Escherichia coli 0807): 32 µg/mL (≈ 122 µM) | MIC ([9]; clinical isolate S044, Escherichia coli 1122): 4 µg/mL (≈ 15.3 µM) | MIC ([9]; clinical isolate S045, Escherichia coli 0906): 4 µg/mL (≈ 15.3 µM) | MIC ([9]; clinical isolate S046, Escherichia coli 0813): 4 µg/mL (≈ 15.3 µM) | MIC ([9]; clinical isolate S047, Escherichia coli 230209): 4 µg/mL (≈ 15.3 µM) | MIC ([9]; clinical isolate S048, Escherichia coli 230211): 4 µg/mL (≈ 15.3 µM) | MIC (MRSA (ATCC 43300)): 8 µg/mL (≈ 30.6 µM) | MIC [10]: 8 µg/mL (≈ 30.6 µM)
